The values that follow come from ChEMBL document CHEMBL5532754, “Discovery of aurones bearing two amine functionalities as SHIP2 inhibitors with insulin-sensitizing effect in rat myotubes” (RSC Med Chem, 2024).

A short description of data set [1]: Thiol (sulfhydryl) reactivity of compound assessed as change in absorbance at 200 uM at pH 7.4 aqueous buffer measured at 1 to 24 hrs in presence of DTT. The class given is ADME. Particulars: pH 7.4, 200 µM, time 1-24 hrs.
In data set [2] the test system is L6. The data set can be described thus: Induction of glucose uptake in serum-starved rat L6 myotubes at 20 uM by luminescence based microplate reader analysis. The class given is functional, cell-based.
Data set [3] addresses T1, Phosphatidylinositol 3,4,5-trisphosphate 5-phosphatase 2 (Rattus norvegicus) (UniProt Q9WVR3).
T1 sequence (whole entry): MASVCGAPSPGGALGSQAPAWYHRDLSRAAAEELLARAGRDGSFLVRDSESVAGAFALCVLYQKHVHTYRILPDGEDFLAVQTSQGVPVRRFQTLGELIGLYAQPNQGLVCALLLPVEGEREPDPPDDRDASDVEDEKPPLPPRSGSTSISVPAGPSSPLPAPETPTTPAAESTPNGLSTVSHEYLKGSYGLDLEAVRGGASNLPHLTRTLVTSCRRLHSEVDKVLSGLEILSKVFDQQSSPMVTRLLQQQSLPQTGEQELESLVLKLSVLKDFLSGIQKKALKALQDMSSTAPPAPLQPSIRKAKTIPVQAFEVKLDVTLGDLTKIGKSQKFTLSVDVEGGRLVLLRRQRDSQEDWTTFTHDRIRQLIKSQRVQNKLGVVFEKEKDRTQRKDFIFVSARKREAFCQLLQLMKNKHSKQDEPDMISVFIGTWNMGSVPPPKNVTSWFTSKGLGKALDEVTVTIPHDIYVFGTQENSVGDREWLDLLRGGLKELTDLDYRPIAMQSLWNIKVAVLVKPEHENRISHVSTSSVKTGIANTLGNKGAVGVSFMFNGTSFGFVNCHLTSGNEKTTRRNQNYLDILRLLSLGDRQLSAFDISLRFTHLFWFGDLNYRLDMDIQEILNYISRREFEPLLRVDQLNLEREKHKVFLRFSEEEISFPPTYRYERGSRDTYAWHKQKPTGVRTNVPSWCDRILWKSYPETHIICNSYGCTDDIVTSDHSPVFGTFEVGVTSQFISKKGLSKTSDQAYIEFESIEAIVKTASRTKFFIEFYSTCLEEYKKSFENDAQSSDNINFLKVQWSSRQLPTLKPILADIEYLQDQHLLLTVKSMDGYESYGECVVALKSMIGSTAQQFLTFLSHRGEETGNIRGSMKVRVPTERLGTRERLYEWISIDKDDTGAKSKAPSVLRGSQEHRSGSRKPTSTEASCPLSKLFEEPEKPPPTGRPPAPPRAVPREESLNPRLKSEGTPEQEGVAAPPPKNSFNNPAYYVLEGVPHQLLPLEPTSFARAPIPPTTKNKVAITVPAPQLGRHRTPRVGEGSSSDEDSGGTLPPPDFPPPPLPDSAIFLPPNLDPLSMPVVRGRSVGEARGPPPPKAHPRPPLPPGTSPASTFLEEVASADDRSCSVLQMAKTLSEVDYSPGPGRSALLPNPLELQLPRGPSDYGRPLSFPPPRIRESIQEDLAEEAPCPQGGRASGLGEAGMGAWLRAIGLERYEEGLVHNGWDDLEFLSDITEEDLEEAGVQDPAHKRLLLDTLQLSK
As to the kind of experiment: Inhibition of SHIP2 in serum-starved rat L6 myotubes assessed as increase in phosphorylated Akt to total Akt level at 20 to 40 uM incubated for 24 hrs by ELISA. The class given is cell-based. Particulars: dose 20-40 µM.

Data set [4] in a line: Thiol (sulfhydryl) reactivity of compound assessed as change in absorbance at 200 uM at pH 7.4 aqueous buffer measured upto 24 hrs in presence of DTT. The class given is ADME. The note with it: pH 7.4, 24 h.
The nature of data set [5]: Apparent permeability of the compound across apical to basolateral side in human Caco-2 cells at 30 uM incubated for 60 mins by LC analysis. The class given is ADME, cell-based.
In data set [6] the test system is L6. As to the kind of experiment: Insulin sensitizing activity in rat L6 myotubes assessed as increase in glucose uptake by measuring fold change at 2 mM preincubated with compound for 18 hrs followed by insulin addition and measured after 15 mins by luminescence based microplate reader analysis. The class given is functional. The note with it: time 18.25 hrs.
In data set [7] the test system is L6. As to the kind of experiment: Induction of glucose uptake in serum-starved rat L6 myotubes at 2 mM by luminescence based microplate reader analysis. Type of data set: functional, cell-based.

Usually Papp A→B stands for how fast a substance crosses the layer from the apical side.

Structures can show the parent of a compound that is named as a salt. Activity calls are given as the source filed them. The rule behind the calls is not given here.

`COC(=O)/C=C/C(=O)OC` [DIMETHYL FUMARATE]: in data set [1], the outcome was Active.

As to `O=C1/C(=C/c2cn(CCN3CCOCC3)c3ccccc23)Oc2cc(OCCN3CCCCC3)ccc21`, the result in the data set with L6 [2] was inactive. Moreover, in data set [3], the inhibition result is “Active”. In addition, in data set [4], the Activity result was “Not Active”.

Take `O=C1/C(=C/c2cn(CCN3CCCCC3)c3ccccc23)Oc2cc(OCCN3CCCCC3)ccc21`: the outcome in the data set with L6 [2] was inactive. Besides, the inhibition entry in data set [3] was “Active”. Besides, the Activity entry in data set [4] is “Not Active”. Further, in data set [5], the Papp A→B at 1 h, 30 µM worked out at 25.3 ×10⁻⁶ cm/s.

Regarding `CN(C)C(=N)NC(=N)N` [METFORMIN], the “fold change (FC)” value with L6 [6] was determined as 1.6. In the data set with L6 [7], the outcome was inactive.

Consider `CN(C)CCCn1cc(/C=C2\Oc3cc(OCCN4CCCCC4)ccc3C2=O)c2ccccc21`, for which, in the data set on L6 [2], the outcome was inactive. Further, the inhibition entry in data set [3] was “Active”. Besides, in data set [4], the Activity result is given as “Not Active”.
